{
  "source": "ChEMBL document CHEMBL2385041",
  "about": "“The discovery of colchicine-SAHA hybrids as a new class of antitumor agents” (Bioorg Med Chem, 2013)",
  "key": {"PC-3": {"test_system": "PC-3", "experiment": "Cytotoxicity against human PC3 cells after 72 hrs by MTT assay", "format": "functional, cell-based", "conditions": "PC-3, 72 h"}, "HCT-116": {"test_system": "HCT-116", "experiment": "Cytotoxicity against human HCT116 cells after 72 hrs by MTT assay", "format": "functional, cell-based", "conditions": "HCT-116, 72 h"}, "A549": {"test_system": "A549", "experiment": "Cytotoxicity against human A549 cells after 72 hrs by MTT assay", "format": "functional, cell-based", "conditions": "A549, 72 h"}, "MCF7": {"test_system": "MCF7", "experiment": "Cytotoxicity against human MCF7 cells after 72 hrs by MTT assay", "format": "functional, cell-based", "conditions": "MCF7, 72 h"}, "A-431": {"test_system": "A-431", "experiment": "Cytotoxicity against human A431 cells after 72 hrs by MTT assay", "format": "functional, cell-based", "conditions": "A-431, 72 h"}, "Histone deacetylase 1": {"molecular_target": "Histone deacetylase 1 (Homo sapiens, UniProt Q13547)", "sequence (Q13547 whole entry)": "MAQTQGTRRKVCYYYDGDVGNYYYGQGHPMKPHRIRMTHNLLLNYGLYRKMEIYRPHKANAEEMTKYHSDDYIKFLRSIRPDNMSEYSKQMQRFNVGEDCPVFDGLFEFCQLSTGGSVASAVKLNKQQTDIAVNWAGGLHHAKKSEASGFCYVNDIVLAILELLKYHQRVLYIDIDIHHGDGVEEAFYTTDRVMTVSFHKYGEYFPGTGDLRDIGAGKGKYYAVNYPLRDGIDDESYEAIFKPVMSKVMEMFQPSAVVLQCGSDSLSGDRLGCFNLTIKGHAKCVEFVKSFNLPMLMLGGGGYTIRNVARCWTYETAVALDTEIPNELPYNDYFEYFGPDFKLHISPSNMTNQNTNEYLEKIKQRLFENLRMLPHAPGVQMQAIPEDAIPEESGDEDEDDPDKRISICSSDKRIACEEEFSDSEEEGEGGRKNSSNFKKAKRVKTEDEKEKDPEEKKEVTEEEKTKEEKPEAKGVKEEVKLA", "experiment": "Inhibition of human recombinant HDAC1 expressed in High5 insect cells using Ac-Lys-Tyr-Lys(-acetyl)-AMC as substrate after 24 hrs by fluorescence assay"}, "[1]": {"molecular_target": "T1, Protein deacetylase HDAC6 (Homo sapiens, UniProt Q9UBN7)", "T1 sequence (Q9UBN7 whole entry)": "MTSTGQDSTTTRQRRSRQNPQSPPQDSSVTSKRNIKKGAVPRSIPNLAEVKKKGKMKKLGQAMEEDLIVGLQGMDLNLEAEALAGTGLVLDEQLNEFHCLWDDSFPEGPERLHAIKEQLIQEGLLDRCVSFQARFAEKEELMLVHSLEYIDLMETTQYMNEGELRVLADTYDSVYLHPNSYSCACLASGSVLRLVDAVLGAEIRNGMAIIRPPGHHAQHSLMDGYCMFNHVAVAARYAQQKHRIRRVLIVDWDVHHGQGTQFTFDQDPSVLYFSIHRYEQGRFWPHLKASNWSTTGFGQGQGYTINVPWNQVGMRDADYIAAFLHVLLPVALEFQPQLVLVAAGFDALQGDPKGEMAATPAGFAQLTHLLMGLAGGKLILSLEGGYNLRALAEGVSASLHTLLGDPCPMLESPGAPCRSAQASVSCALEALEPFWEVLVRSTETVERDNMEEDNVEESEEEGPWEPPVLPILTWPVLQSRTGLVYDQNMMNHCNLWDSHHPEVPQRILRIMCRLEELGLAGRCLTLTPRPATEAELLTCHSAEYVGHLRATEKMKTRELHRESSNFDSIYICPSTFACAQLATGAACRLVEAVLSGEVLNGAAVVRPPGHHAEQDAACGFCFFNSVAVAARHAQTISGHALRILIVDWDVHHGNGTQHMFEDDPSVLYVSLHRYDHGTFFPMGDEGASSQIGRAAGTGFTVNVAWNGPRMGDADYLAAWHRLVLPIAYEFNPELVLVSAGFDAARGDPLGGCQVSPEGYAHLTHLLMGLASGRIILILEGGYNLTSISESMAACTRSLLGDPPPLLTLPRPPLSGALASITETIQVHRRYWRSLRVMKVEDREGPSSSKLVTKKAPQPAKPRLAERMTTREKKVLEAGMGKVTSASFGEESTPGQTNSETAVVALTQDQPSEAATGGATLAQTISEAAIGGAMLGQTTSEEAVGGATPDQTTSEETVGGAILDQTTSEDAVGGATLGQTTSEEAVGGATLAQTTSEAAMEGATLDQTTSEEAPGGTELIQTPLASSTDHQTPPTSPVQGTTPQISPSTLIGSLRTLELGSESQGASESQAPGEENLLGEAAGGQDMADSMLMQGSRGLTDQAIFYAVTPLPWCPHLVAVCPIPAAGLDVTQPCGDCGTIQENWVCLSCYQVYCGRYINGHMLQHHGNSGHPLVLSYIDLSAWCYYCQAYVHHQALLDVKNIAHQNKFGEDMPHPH", "experiment": "Inhibition of human recombinant HDAC6 expressed in High5 insect cells using Boc-Lys (-acetyl)-AM) as substrate after 24 hrs by fluorescence assay"}, "Bel-7402 [2]": {"test_system": "Bel-7402", "experiment": "Cell cycle arrest in human Bel7402 cells assessed as accumulation at G2/M phase at 1 uM relative to control", "format": "functional, cell-based"}, "Bel-7402 [3]": {"test_system": "Bel-7402", "experiment": "Cell cycle arrest in human Bel7402 cells assessed as accumulation at G2/M phase at 10 uM relative to control", "format": "functional, cell-based"}, "Histone deacetylase 3": {"molecular_target": "Histone deacetylase 3 (Homo sapiens, UniProt O15379)", "sequence (O15379 whole entry)": "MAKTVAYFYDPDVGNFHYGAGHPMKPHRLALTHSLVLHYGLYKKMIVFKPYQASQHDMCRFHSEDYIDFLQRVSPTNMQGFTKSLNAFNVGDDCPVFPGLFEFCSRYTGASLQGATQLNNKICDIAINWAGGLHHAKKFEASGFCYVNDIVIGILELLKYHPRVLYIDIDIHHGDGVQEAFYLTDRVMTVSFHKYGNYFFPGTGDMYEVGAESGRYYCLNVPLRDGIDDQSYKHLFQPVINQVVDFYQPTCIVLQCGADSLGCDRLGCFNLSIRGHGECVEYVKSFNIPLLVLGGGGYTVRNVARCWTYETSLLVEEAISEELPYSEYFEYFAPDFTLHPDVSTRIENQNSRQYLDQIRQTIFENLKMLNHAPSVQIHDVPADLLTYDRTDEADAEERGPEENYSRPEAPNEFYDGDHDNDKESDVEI", "experiment": "Inhibition of human recombinant HDAC3 expressed in High5 insect cells using Ac-Lys-Tyr-Lys(-acetyl)-AMC as substrate after 24 hrs by fluorescence assay"}},
  "note": "pIC50: −log10 of the molar value. Activity calls are given as the source filed them. The calls are words filed in the database; no cut-off is given here.",
  "data": [
    {"smiles": "COc1cc2c(c(OC)c1OC)-c1ccc(OC)c(=O)cc1[C@@H](NC(C)=O)CC2", "note": "[COLCHICINE]", "values": [
      {"measurement": "pIC50", "setting": "PC-3", "result": 7.13},
      {"measurement": "pIC50", "setting": "HCT-116", "result": 7.43},
      {"measurement": "pIC50", "setting": "A549", "result": 7.64},
      {"measurement": "pIC50", "setting": "MCF7", "result": 7.77},
      {"measurement": "pIC50", "setting": "A-431", "result": 7.72}
    ]},
    {"smiles": "COc1cc2c(c(OC)c1OC)-c1ccc(OC)c(=O)cc1[C@@H](NC(=O)CCCCC(=O)NO)CC2", "values": [
      {"measurement": "pIC50", "setting": "Histone deacetylase 1", "result": 6.14},
      {"measurement": "pIC50", "setting": "PC-3", "result": 5.27},
      {"measurement": "pIC50", "setting": "[1]", "result": 6.36},
      {"measurement": "pIC50", "setting": "HCT-116", "result": 5.68},
      {"measurement": "Activity", "setting": "Bel-7402 [2]", "result": "Active"},
      {"measurement": "Activity", "setting": "Bel-7402 [3]", "result": "Active"},
      {"measurement": "pIC50", "setting": "A549", "result": 5.31},
      {"measurement": "pIC50", "setting": "Histone deacetylase 3", "result": 6.08},
      {"measurement": "pIC50", "setting": "MCF7", "result": 6.03},
      {"measurement": "pIC50", "setting": "A-431", "result": 5.99}
    ]},
    {"smiles": "COc1cc2c(c(OC)c1OC)-c1ccc(OC)c(=O)cc1[C@@H](NC(=O)CCC(=O)NO)CC2", "values": [
      {"measurement": "pIC50", "setting": "Histone deacetylase 1", "result": 5.88},
      {"measurement": "pIC50", "setting": "PC-3", "result": 6.09},
      {"measurement": "pIC50", "setting": "[1]", "result": 5.46},
      {"measurement": "pIC50", "setting": "HCT-116", "result": 6.04},
      {"measurement": "Activity", "setting": "Bel-7402 [2]", "result": "Active"},
      {"measurement": "Activity", "setting": "Bel-7402 [3]", "result": "Active"},
      {"measurement": "pIC50", "setting": "A549", "result": 5.33},
      {"measurement": "pIC50", "setting": "Histone deacetylase 3", "result": 5.87},
      {"measurement": "pIC50", "setting": "MCF7", "result": 6.08},
      {"measurement": "pIC50", "setting": "A-431", "result": 6.62}
    ]},
    {"smiles": "COc1cc2c(c(OC)c1OC)-c1ccc(OC)c(=O)cc1[C@@H](NC(=O)CCCC(=O)NO)CC2", "values": [
      {"measurement": "pIC50", "setting": "Histone deacetylase 1", "result": 5.02},
      {"measurement": "pIC50", "setting": "PC-3", "result": 5.63},
      {"measurement": "pIC50", "setting": "[1]", "result": 5.08},
      {"measurement": "pIC50", "setting": "HCT-116", "result": 5.56},
      {"measurement": "Activity", "setting": "Bel-7402 [2]", "result": "Active"},
      {"measurement": "Activity", "setting": "Bel-7402 [3]", "result": "Active"},
      {"measurement": "pIC50", "setting": "A549", "result": 5.13},
      {"measurement": "pIC50", "setting": "Histone deacetylase 3", "result": 5.08},
      {"measurement": "pIC50", "setting": "MCF7", "result": 6.06},
      {"measurement": "pIC50", "setting": "A-431", "result": 5.74}
    ]},
    {"smiles": "COc1cc2c(c(OC)c1OC)-c1ccc(OC)c(=O)cc1[C@@H](NC(=O)CCCCCCC(=O)NO)CC2", "values": [
      {"measurement": "pIC50", "setting": "PC-3", "result": 5.47},
      {"measurement": "pIC50", "setting": "[1]", "result": 5.01},
      {"measurement": "pIC50", "setting": "HCT-116", "result": 5.59},
      {"measurement": "Activity", "setting": "Bel-7402 [2]", "result": "Active"},
      {"measurement": "Activity", "setting": "Bel-7402 [3]", "result": "Active"},
      {"measurement": "pIC50", "setting": "A549", "result": 5.14},
      {"measurement": "pIC50", "setting": "MCF7", "result": 5.86},
      {"measurement": "pIC50", "setting": "A-431", "result": 5.46}
    ]},
    {"smiles": "COc1cc2c(c(OC)c1OC)-c1ccc(OC)c(=O)cc1[C@@H](NC(=O)CCCCCC(=O)NO)CC2", "values": [
      {"measurement": "pIC50", "setting": "Histone deacetylase 1", "result": 5.80},
      {"measurement": "pIC50", "setting": "PC-3", "result": 5.53},
      {"measurement": "pIC50", "setting": "[1]", "result": 6.12},
      {"measurement": "pIC50", "setting": "HCT-116", "result": 5.86},
      {"measurement": "Activity", "setting": "Bel-7402 [2]", "result": "Active"},
      {"measurement": "Activity", "setting": "Bel-7402 [3]", "result": "Active"},
      {"measurement": "pIC50", "setting": "A549", "result": 5.14},
      {"measurement": "pIC50", "setting": "Histone deacetylase 3", "result": 5.99},
      {"measurement": "pIC50", "setting": "MCF7", "result": 6.02},
      {"measurement": "pIC50", "setting": "A-431", "result": 5.91}
    ]}
  ]
}
